Measurements as given in US20080145840A1 (priority 2003, published 2008).
Values joined by “and” are separate entries in the source; they are usually repeats but may differ in a detail not shown here. Identical values can stand only once. Like-named read-outs stand apart in the source and are kept apart here.

Legend:
E. coli MurB [1] = molecular target: T1, E. coli MurB (Escherichia coli, UniProt P08373); assay: Absorbance method measuring NADPH depletion at 340 nm (MurB activity); format: biochemical
Protocol: (§1) The inhibition of E. coli MurB by (2R)-2-{2-[3-(4-tert-butylphenoxy)phenyl]-4-oxo-1,3-thiazolidin-3-yl} hexanoic acid, a 4-thiazolidinone compound, was studied by the same method. Reactions were carried in 50 mM Tris, pH 8.0, 1 mM TCEP, 20 mM KCl, 0.005% Triton, in the presence of 100 μM NADPH and 60 μM EP. The concentration of MurB was 1.3 nM.
Other kinetic measurements were performed to further characterize E. coli MurB by ITC.

E. coli MurB [2] = molecular target: T1, E. coli MurB; assay: ITC assay of E. coli MurB activity; format: biochemical
Protocol: E. coli MurB was diluted in assay buffer (50 mM Tris pH 8.0, 1 mM TCEP, 20 mM KCl, 0.005% Triton X-100) to a final concentration of 1.3 nM. The buffer contained the MurB substrates at the following concentrations in the ITC test cell: 100 μM NADPH and 60 μM UDP-GlcNAc-EP. DMSO was also added at a final concentration of 2.7% (v/v).
as §1

E. coli MurC [3] = molecular target: T2, E. coli MurC (Escherichia coli, UniProt P17952); assay: biochemical
E. coli MurC [4] = molecular target: T2, E. coli MurC; assay: biochemical; remark: listed apart in the source
Protocol: E. coli MurC was diluted in assay buffer (50 mM Tris pH 8.0, 1 mM Tris (2-carboxyethyl) phosphine hydrochloride (TCEP), 0.01% (w/v) Triton X-100, 20 mM ammonium formate) to a final concentration of 10 nM. […] The titration was started manually after the DP signal was stabilized. A total of 16 injections (2, 2, 4, 4, 4, 4, 8, 8, 16, 16, 32, 32, 32, 32, 32, and 32 μl) were performed. Time spacing in between injections was set at 120 sec for all injections.
All the reactions were carried in 50 mM Tris, pH 8.0, 1 mM TCEP, 0.01% (w/v) Triton, and 20 mM ammonium formate. The final concentration of E. coli MurC was 10 nM. […] The reaction was initiated with the addition of MurC and placed into the test cell. AMP-PCP was dissolved in the buffer described above at a final concentration of 2.8 mM and placed into the titration syringe.

E. coli GyrAB [5] = molecular target: T3, E. coli GyrAB (Escherichia coli, UniProt P0AES6); assay: Independent assay of GyrAB enzyme activity using phosphate detection; format: biochemical; details: read-out: Ki, ADP
E. coli GyrAB [6] = molecular target: T3, E. coli GyrAB; assay: ITC assay of E. coli GyrAB ATPase activity; format: biochemical; details: read-out: Ki, ADP
Protocol: The titration was started manually after the DP signal was stabilized.
The data were analyzed as follows: the power value (μcal/sec) after each injection is subtracted from the initial power value (before any injection occurs).

T1 sequence (P08373 whole entry): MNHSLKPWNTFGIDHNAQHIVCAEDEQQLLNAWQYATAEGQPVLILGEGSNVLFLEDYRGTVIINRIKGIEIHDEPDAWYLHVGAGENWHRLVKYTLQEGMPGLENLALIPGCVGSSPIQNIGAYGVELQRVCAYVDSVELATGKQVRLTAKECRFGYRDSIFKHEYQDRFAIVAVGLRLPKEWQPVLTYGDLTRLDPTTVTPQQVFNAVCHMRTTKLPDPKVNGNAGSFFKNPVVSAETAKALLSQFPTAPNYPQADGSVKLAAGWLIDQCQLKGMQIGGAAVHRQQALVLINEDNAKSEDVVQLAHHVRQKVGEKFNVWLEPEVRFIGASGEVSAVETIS
T2 sequence (P17952 whole entry): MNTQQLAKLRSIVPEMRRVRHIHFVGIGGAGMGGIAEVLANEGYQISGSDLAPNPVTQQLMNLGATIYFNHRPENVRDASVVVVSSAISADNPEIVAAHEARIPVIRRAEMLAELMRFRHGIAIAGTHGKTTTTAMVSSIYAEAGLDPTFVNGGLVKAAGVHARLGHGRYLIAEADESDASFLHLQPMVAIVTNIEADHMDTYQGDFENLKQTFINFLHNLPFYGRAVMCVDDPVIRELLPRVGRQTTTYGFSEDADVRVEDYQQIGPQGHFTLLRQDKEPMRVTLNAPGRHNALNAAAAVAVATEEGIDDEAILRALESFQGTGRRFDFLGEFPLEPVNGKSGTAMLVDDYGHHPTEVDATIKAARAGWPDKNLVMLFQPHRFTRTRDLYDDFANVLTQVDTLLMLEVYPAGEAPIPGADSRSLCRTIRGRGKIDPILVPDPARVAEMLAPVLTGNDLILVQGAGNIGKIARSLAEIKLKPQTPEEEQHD

SMILES: C=C(O[C@H]1[C@H](O)[C@@H](CO)O[C@H](OP(=O)(O)OP(=O)(O)OC[C@H]2O[C@@H](n3ccc(=O)[nH]c3=O)[C@H](O)[C@@H]2O)[C@@H]1NC(C)=O)C(=O)O [UDP-GlcNAc−EP, uridine diphosphate-GlcNAc-enolpyruvate]
- Km (E. coli MurB [1]; read-out: KM, UDP-GlcNAc-EP): 6 µM
- Km (E. coli MurB [2]; read-out: KM, UDP-GlcNAc-EP): 8 µM

SMILES: CCCC[C@H](C(=O)O)N1C(=O)CSC1c1cccc(Oc2ccc(C(C)(C)C)cc2)c1 (stereo partly drawn) [4-thiazolidinone analogue, (2R)-2-{2-[3-(4-tert-butylphenoxy)phenyl]-4-oxo-1,3-thiazolidin-3-yl} hexanoic acid]
- IC50 (E. coli MurB [1]; NADPH depletion at 340 nm, read-out: 4-thiazolidinone analogue IC50): 101 µM
- IC50 (E. coli MurB [2]; 1.3 nM MurB, 100 μM NADPH, 60 μM UDP-GlcNAc-EP, read-out: 4-thiazolidinone analogue IC50): 154 µM

SMILES: CC(=O)N[C@H]1[C@@H](OP(=O)(O)OP(=O)(O)OC[C@H]2O[C@@H](n3ccc(=O)[nH]c3=O)[C@H](O)[C@@H]2O)O[C@H](CO)[C@@H](O)[C@@H]1O[C@H](C)C(=O)O [UDP-MurNAc]
- Km (E. coli MurC [3]; Phosphate detection, read-out: KM, UDP-MurNAc): 19 µM
- Km (E. coli MurC [4]; ITC, read-out: KM, UDP-MurNAc): 21 µM

SMILES: Nc1ncnc2c1ncn2[C@@H]1O[C@H](COP(=O)(O)OP(=O)(O)CP(=O)(O)O)[C@@H](O)[C@H]1O [AMP-PCP, β,γ-Methyleneadenosine 5′-triphosphate]
- IC50 (E. coli MurC [3]; AMP-PCP IC50): 40 µM and 35 µM
- IC50 (E. coli MurC [4]): 27 µM

SMILES: NC(=O)C1=CN([C@@H]2O[C@H](COP(=O)(O)OP(=O)(O)OC[C@H]3O[C@@H](n4cnc5c(N)ncnc54)[C@H](OP(=O)(O)O)[C@@H]3O)[C@@H](O)[C@H]2O)C=CC1 [NADPH]
- Km (E. coli MurB [1]; read-out: KM, NADPH): 9 µM
- Km (E. coli MurB [2]; read-out: KM, NADPH): 9 µM

SMILES: Nc1ncnc2c1ncn2[C@@H]1O[C@H](COP(=O)(O)OP(=O)(O)O)[C@@H](O)[C@H]1O [ADP]
- Ki (E. coli GyrAB [5]): 18 µM
- Ki (E. coli GyrAB [6]): 18 µM
